Measurements published in US20260125378A2, “Heterocyclic Compounds” (BeOne Medicines I GmbH, priority 2023, published 2026).
pIC50: −log10 of the molar value.

Columns and labels:
[1] = target: T1, Full length DGKζ (in-house protein M1-V929) (Homo sapiens, UniProt Q13574); test: Biochemical DGK IC50 assay (ADP-Glo, lipid micelle substrate), DGKζ; conditions: 1 hour preincubation, 1 hour reaction, room temperature
T1 construct: His (N); TEV site (N); made in house; host or cells: Sf9 insect cells (Bac-to-Bac baculovirus)
Procedure, shortened: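 Enzyme: full-length human DGKζ M1-V929, produced in baculovirus-infected Sf9 cells; substrate DAG/PS micelles. Buffer 50 mM HEPES, 10 mM MgCl2, 0.01 mM CaCl2, 0.1 mM Na3VO4.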

[2] = target: T2, Full length DGKα (D21-10BG, SignalChem) (Homo sapiens, UniProt P23743); test: Biochemical DGK IC50 assay (ADP-Glo, lipid micelle substrate), DGKα; conditions: 1 hour preincubation, 1 hour reaction, room temperature
T2 construct: Full length DGKα (D21-10BG, SignalChem); purchased SignalChem D21-10BG
Procedure, shortened: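 ADP-Glo luminescence quantified ADP produced after a 1 h room-temperature reaction of full-length DGKα on DAG/PS micelles, in HEPES buffer containing MgCl2, CaCl2, vanadate, BSA and Tween-20. IC50 values derive from activity inhibition over a compound concentration series.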

T1 sequence (Q13574 1-929 isoform Q13574-4): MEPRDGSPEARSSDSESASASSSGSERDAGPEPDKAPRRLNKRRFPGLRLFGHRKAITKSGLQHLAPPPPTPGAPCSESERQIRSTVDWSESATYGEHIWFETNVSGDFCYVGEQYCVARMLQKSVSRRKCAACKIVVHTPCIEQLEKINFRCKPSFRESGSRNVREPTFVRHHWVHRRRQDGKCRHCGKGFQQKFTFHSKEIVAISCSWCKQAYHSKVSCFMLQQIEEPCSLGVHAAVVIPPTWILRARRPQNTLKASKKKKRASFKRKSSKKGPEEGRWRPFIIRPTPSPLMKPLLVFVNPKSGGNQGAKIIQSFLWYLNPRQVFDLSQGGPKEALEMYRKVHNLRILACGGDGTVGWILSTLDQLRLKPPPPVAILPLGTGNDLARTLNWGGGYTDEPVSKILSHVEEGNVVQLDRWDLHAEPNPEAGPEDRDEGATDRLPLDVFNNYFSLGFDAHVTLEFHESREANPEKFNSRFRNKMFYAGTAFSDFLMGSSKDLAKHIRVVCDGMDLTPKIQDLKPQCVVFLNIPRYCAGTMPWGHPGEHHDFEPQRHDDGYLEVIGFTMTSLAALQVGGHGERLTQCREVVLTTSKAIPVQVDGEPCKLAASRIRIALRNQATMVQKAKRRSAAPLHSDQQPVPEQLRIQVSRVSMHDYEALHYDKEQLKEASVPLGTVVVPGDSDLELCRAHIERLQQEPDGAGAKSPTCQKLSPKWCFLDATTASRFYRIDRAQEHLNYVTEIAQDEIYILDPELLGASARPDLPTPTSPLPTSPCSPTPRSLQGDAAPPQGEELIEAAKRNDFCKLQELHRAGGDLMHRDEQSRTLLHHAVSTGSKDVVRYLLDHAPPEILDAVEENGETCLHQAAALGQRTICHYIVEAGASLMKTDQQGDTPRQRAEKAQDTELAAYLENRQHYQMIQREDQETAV
T2 sequence (P23743 whole entry): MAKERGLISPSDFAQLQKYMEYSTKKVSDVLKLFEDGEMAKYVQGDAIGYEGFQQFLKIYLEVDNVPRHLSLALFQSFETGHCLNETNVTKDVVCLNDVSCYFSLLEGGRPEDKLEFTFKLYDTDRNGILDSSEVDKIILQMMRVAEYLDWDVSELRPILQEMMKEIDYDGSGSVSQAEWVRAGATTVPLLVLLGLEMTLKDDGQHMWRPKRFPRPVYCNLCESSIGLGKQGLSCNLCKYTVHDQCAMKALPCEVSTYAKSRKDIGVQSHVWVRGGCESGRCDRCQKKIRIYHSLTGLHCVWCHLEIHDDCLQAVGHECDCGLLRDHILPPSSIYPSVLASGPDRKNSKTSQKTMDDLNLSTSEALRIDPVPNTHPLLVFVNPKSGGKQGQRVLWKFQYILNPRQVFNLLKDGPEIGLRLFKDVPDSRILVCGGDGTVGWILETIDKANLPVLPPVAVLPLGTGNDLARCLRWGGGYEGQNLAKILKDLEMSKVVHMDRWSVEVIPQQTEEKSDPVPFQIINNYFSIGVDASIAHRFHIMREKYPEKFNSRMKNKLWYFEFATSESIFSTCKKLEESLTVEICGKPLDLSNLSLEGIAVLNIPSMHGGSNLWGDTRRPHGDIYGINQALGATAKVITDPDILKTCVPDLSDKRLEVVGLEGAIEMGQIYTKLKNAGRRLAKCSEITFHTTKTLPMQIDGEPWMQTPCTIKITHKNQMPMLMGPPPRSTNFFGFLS

pIC50 [1] | pIC50 [2] | SMILES
7.51 | 4.55 | CCn1c(CC#N)nc2c(N3C[C@@H](C)N(C(C)c4ccc5c(c4)OC4(CCC4)O5)C[C@@H]3C)nc(=O)n(C)c21 (mixture of isomers) [Compound A169, 2-(6-((2S,5R)-2,5-dimethyl-4-(1-(spiro[benzo[d][1,3]dioxole-2,1′-cyclobutan]-5-yl)ethyl)piperazin-1-yl)-9-ethyl-3-methyl-2-oxo-3,9-dihydro-2H-purin-8-yl)acetonitrile]
6.01 | < 5.00 | COc1cc(F)ccc1C(C)N1C[C@H](C)N(c2nc(=O)n(C)c3c2nc(CC#N)n3C)C[C@H]1C (single isomer, unassigned) [Compound A24a]
7.66 | 5.13 | CC[C@@H]1CN(c2nc(=O)n(C)c3c2nc(CC#N)n3C)[C@@H](C)CN1C(C)c1ccc2c(c1)OC(C)(C)CO2 (single isomer, unassigned) [Compound A63b]
7.60 | < 3.82 | CC(c1ccc(F)cc1C(F)(F)F)N1C[C@H](C)N(c2cc(=O)n(C)c3sc(CC#N)nc23)C[C@H]1C (stereo partly drawn) [Compound A195, 2-(7-((2S,5R)-4-(1-(4-fluoro-2-(trifluoromethyl)phenyl)ethyl)-2,5-dimethylpiperazin-1-yl)-4-methyl-5-oxo-4,5-dihydrothiazolo[5,4-b]pyridin-2-yl)acetonitrile]
6.55 | < 3.82 | CCn1c(CC#N)nc2c(N3C[C@@H](C)N(C(C)c4ccc5c(c4)OC(C)(C)CO5)C[C@@H]3C)nc(=O)n(CC)c21 (stereo partly drawn) [Compound A62, 2-(6-((2S,5R)-4-(1-(3,3-dimethyl-2,3-dihydrobenzo[b][1,4]dioxin-6-yl)ethyl)-2,5-dimethylpiperazin-1-yl)-3,9-diethyl-2-oxo-3,9-dihydro-2H-purin-8-yl)acetonitrile]
7.77 | 3.98 | [2H]C([2H])([2H])n1c(CC#N)nc2c(N3C[C@@H](C)N(C(C)c4ccc(F)cc4C(F)(F)F)C[C@@H]3C)nc(=O)n(C([2H])([2H])[2H])c21 (stereo partly drawn) [Compound A36, 2-(6-((2S,5R)-4-(1-(4-fluoro-2-(trifluoromethyl)phenyl)ethyl)-2,5-dimethylpiperazin-1-yl)-3,9-bis(methyl-d3)-2-oxo-3,9-dihydro-2H-purin-8-yl)acetonitrile]
7.40 | 4.88 | CCn1c(CC#N)nc2c(N3C[C@@H](C)N(C(C)c4c(F)cc5c(c4F)OC(C)(C)O5)C[C@@H]3C)nc(=O)n(C)c21 (single isomer, unassigned) [Compound A176a]
7.38 | < 3.82 | CCn1c(CC#N)nc2c(N3C[C@@H](C)N(C(C)c4cccc(C5CC5)c4)C[C@@H]3C)nc(=O)n(C)c21 (stereo partly drawn) [Compound A125, 2-(6-((2S,5R)-4-(1-(3-cyclopropylphenyl)ethyl)-2,5-dimethylpiperazin-1-yl)-9-ethyl-3-methyl-2-oxo-3,9-dihydro-2H-purin-8-yl)acetonitrile]
7.85 | < 5.00 | COC[C@H]1CN(C(C)c2ccc(F)cc2C(F)(F)F)[C@H](C)CN1c1nc(=O)n(C)c2c1nc(CC#N)n2C (single isomer, unassigned) [Compound A10b]
7.39 | 4.42 | CCn1c(CC#N)nc2c(N3C[C@@H](C)N(C(C)c4ccc5c(c4F)OC(C)(C)O5)C[C@@H]3C)c(F)c(=O)n(C)c21 (single isomer, unassigned) [Compound A190b]
7.51 | 4.16 | CCn1c(CC#N)nc2c(N3C[C@@H](C)N(C(C)c4ccc5sc(C)nc5c4)C[C@@H]3C)nc(=O)n(C)c21 (stereo partly drawn) [Compound A55, 2-(6-((2S,5R)-2,5-dimethyl-4-(1-(2-methylbenzo[d]thiazol-5-yl)ethyl)piperazin-1-yl)-9-ethyl-3-methyl-2-oxo-3,9-dihydro-2H-purin-8-yl)acetonitrile]
8.70 | 5.92 | CC(c1cc2c(cc1F)OCC(C)(C)O2)N1C[C@H](C)N(c2nc(=O)n(C)c3c2nc(CC#N)n3C)C[C@H]1C (single isomer, unassigned) [Compound A69a]
7.32 | 3.95 | CCn1c(CC#N)nc2c(N3C[C@@H](C)N(C(C)c4ccnc(OC(C)C)c4)C[C@@H]3C)nc(=O)n(C)c21 (stereo partly drawn) [Compound A124, 2-(9-ethyl-6-((2S,5R)-4-(1-(2-isopropoxypyridin-4-yl)ethyl)-2,5-dimethylpiperazin-1-yl)-3-methyl-2-oxo-3,9-dihydro-2H-purin-8-yl)acetonitrile]
< 5.00 | < 3.82 | CCn1c(CC#N)nc2c(N3C[C@@H](C)N(C(C)c4ccc5c(c4)c(=O)c(C)cn5C)C[C@@H]3C)nc(=O)n(C)c21 (stereo partly drawn) [Compound A193, 2-(6-((2S,5R)-4-(1-(1,3-dimethyl-4-oxo-1,4-dihydroquinolin-6-yl)ethyl)-2,5-dimethylpiperazin-1-yl)-9-ethyl-3-methyl-2-oxo-3,4,5,9-tetrahydro-2H-purin-8-yl)acetonitrile]
6.67 | < 3.82 | CCn1c(CC#N)nc2c(N3C[C@@H](C)N(C(C)c4ccc5ccc(C)nc5c4)C[C@@H]3C)nc(=O)n(C)c21 (stereo partly drawn) [Compound A90, 2-(6-((2S,5R)-2,5-dimethyl-4-(1-(2-methylquinolin-7-yl)ethyl)piperazin-1-yl)-9-ethyl-3-methyl-2-oxo-3,9-dihydro-2H-purin-8-yl)acetonitrile]
7.85 | 4.63 | CCn1c(CC#N)nc2c(N3C[C@@H](C)N(C(C)c4ccc5c(c4)OC(C)(C)CC5)C[C@@H]3C)nc(=O)n(C)c21 (mixture of isomers) [Compound A94, 2-(6-((2S,5R)-4-(1-(2,2-dimethylchroman-7-yl)ethyl)-2,5-dimethylpiperazin-1-yl)-9-ethyl-3-methyl-2-oxo-3,9-dihydro-2H-purin-8-yl)acetonitrile]
8.40 | 3.87 | CC(OC(F)F)c1cc(F)ccc1C(C)N1C[C@H](C)N(c2nc(=O)n(C)c3c2nc(CC#N)n3C)C[C@H]1C (single isomer, unassigned) [Compound A29b]
6.61 | 3.87 | CCn1c(CC#N)nc2c(N3C[C@@H](C)N(C(C)c4cc(C(F)(F)F)ccc4F)C[C@@H]3C)nc(=O)n(C)c21 (stereo partly drawn) [Compound A114, 2-(9-ethyl-6-((2S,5R)-4-(1-(2-fluoro-5-(trifluoromethyl)phenyl)ethyl)-2,5-dimethylpiperazin-1-yl)-3-methyl-2-oxo-3,9-dihydro-2H-purin-8-yl)acetonitrile]
8.22 | 4.78 | CCn1c(CC#N)nc2c(N3C[C@@H](C)N(C(C)c4ccc5c(c4)OC(C)(C)CC5)C[C@@H]3C)nc(=O)n(C)c21 (single isomer, unassigned) [Compound A94a]
7.31 | 3.89 | CCn1c(CC#N)nc2c(N3C[C@@H](C)N(C(C)c4cccc(C(C)C)n4)C[C@@H]3C)nc(=O)n(C)c21 (stereo partly drawn) [Compound A123, 2-(9-ethyl-6-((2S,5R)-4-(1-(6-isopropylpyridin-2-yl)ethyl)-2,5-dimethylpiperazin-1-yl)-3-methyl-2-oxo-3,9-dihydro-2H-purin-8-yl)acetonitrile]
7.01 | < 3.82 | Cc1ccc(C(C)N2C[C@H](C)N(c3cc(=O)n(C)c4c3nc(CC#N)n4C)C[C@H]2C)c(C(F)(F)F)c1 (single isomer, unassigned) [Compound A8b]
7.15 | 4.46 | CCn1c(CC#N)nc2c(N3C[C@@H](C)N(C(C)c4ccc5c(c4)OC(F)(F)O5)C[C@@H]3C)nc(=O)n(C)c21 (single isomer, unassigned) [Compound A99a]
